Results reported in patent publication US12180159B2, “Activators of the unfolded protein response” (The Board of Trustees of the University of Illinois, priority 2018, dated 2024).

Key:
[1] = test system: MYS and MDG cells (MCF-7 with Y537S or D538G ERα); test: MYS-luc / MDG-luc orthotopic and metastatic tumor models; format: in vivo, mouse
Text: FIG. 41. […]
FIG. 43. SERK-F6-mediated eradication of MYS/MDG tumors is dependent on quantitative cell killing. a-b, MYS-luc. orthotopic tumors were established in NSG ovariectomized mice (no E2 pellet, ˜45 days to establish) and dosed daily as indicated (n=5-6). b, Treatment of MYS-luc. tumors were stopped after 21 daily doses of SERK-F6 and mice tumor burden was tracked via bioluminescence. […]

[2] = test system: protein synthesis in Caov-3 cells; test: Inhibition of protein synthesis (35S-methionine incorporation); format: cell-based, human; conditions: 1,000 nM
Procedure: ERα positive Caov-3, human ovarian cancer cells, were treated for the indicated times with 1,000 nM BHPI or 1,000 nM (−)-105. Cells were briefly labeled with ^35S-methionine. Incorporation of labeled ^35S-methionine into protein was determined by trichloroacetic acid precipitation and trapping of precipitated protein, but not free amino acids, in small Whatman hardened ashless filters. After solubilizing the protein in the filters with base and neutralization with acid, the samples were counted in a liquid scintillation counter. Shown is the average (n≥3) percent inhibition of protein synthesis compared to the 0-time sample. The near quantitative inhibition of protein synthesis by (−)-105 is consistent with (−)-105 inducing lethal hyperactivation of the PERK arm of the UPR. Even non-growing cells are constantly degrading protein and making new proteins. Cells in which nearly all (>90%) of protein synthesis is inhibited cannot grow and will ultimately die.

MCF-7 cells = format: cell-based
Procedure: FIG. 36. Discovery of SERK-F6 (also known as, C(−)-105, (−)-105, (R)-105, (−)-1, or (R)-1), a compound that kills ERα-positive cancer cells. a, Chemical structures of BHPI and racemic compound 1 (i.e. (±)-1), and their cytotoxic activity on T47D breast cancer cells after 24-hour incubations with concentrations as indicated in nM. Cells were stained with annexin V-FITC and PI dyes prior to analysis via flow cytometry. […] Cells were incubated with SERK-F6 or positive control, Raptinal, for 24 hours and then stained with annexin V-FITC and PI dyes and analyzed via flow cytometry. Error bars represent S.E.M of 3 independent replicates. c, IC50 values of SERK-F6 after 24-hour incubation against a panel of cancer cell lines grouped by their reported ERα status. Cell viability was measured by Alamar blue fluorescence and set relative to a vehicle control and a quantitative dead control treated with Raptinal. Error bars represent S.E.M of 3 independent experiments. d, Crystal violet staining of T47D cells after 24-hour incubations with compounds and concentrations as indicated. […] Cell number was determined by MTS.
Through a medicinal chemistry campaign, (±)-1 was discovered to show an unexpected cytotoxic phenotype (FIG. 36A). […] The dose dependent activity of SERK-F6 was determined against a panel of cancer cell lines (FIG. 36C and FIG. 37A) for ERα.

Structure (SMILES): O=C1Nc2c(C(F)(F)F)cccc2C1(c1ccc(O)cc1)c1ccc(OC(F)(F)F)cc1 (single isomer, unassigned; (-)) [(−)-105, 3-(4-hydroxyphenyl)-3-(4-(trifluoromethoxy)phenyl)-7-(trifluoromethyl)indolin-2-one]
- effect on metastatic tumor burden ([1]; metastatic model): eradicates metastatic tumor burden
- effect on MYS / MDG tumors ([1]; mouse, in vivo): Dramatic tumor regressions
- inhibition of the synthesis of new proteins [2]: near-quantitative, inhibition
- cytotoxicity to ERα positive MCF-7 cells (MCF-7 cells): cytotoxic
- death of MCF-7 cells (MCF-7 cells; FIG. 10): induces dose-dependent death
